Source: US9560869B2, “Food composition comprising desferrichrysin” (NESTEC S.A., priority 2013, dated 2017)

Tests used:
[1] = Colour change of fortified yoghurt during storage at 37° C. for 120 days (CIELAB); type: physicochemical; details: for colour change over time (in words): stored at 37° C. for 120 days
Procedure: (§1) Commercial yoghurt, Nestlé Jogolino™ Strawberry/Banana yoghurt containing 15% banana puree and 10% strawberry puree was iron fortified by the addition of different iron salts to 5 kg yoghurt as reported in the table below. The amounts were chosen to provide approximately 0.8 mg iron per 100 g yoghurt. […] Colour measurements were performed in 1×1 cm polystyrene cuvettes using an X-Rite ColorEye 7000A colorimeter. The colorimeter was set up with a D65 light source, 10 degree observer angle and with specular component included. The colour difference between the yoghurt with no iron salts and the iron fortified yoghurt was measured for each iron salt and expressed as ΔEab* using the CIELAB colour scale. 70 g samples of the fortified yoghurt samples described above were placed in 100 mL glass jars and stored at 37° C. for 120 days. Colour measurements were performed at a range of time intervals.

[2] = Colour difference of iron fortified strawberry/banana yoghurt vs yoghurt with no iron salts after flash pasteurization (CIELAB); type: physicochemical
Procedure: as §1, with “scale.” for “scale. 70 g samples of the fortified yoghurt samples described above were placed in 100 mL glass jars and stored at 37° C. for 120 days. Colour measurements were performed at a range of time intervals.”

[3] = in vivo; cited from earlier work

| ΔEab* ([2]; colour difference vs yoghurt with no iron salts, approx. 0.8 mg iron per 100 g yoghurt, flash pasteurized at 105° C. for 2 minutes) | ΔEab* day 7 ([1]; stored at 37° C., vs colour immediately after pasteurization, day 7) | ΔEab* day 30 ([1]; stored at 37° C., vs colour immediately after pasteurization, day 30) | ΔEab* day 60 ([1]; stored at 37° C., vs colour immediately after pasteurization, day 60) | ΔEab* day 120 ([1]; stored at 37° C., vs colour immediately after pasteurization, day 120) | Compound | colour change over time (in words) [1] | colour compared with yoghurt with no added iron (in words) ([2]; after flash pasteurization at 105° C. for 2 minutes) | bioavailability of iron (in words) [3] |
| --- | --- | --- | --- | --- | --- | --- | --- | --- |
|  |  |  |  |  | O=S(=O)([O-])[O-].[Fe+2] [FeSO4 × H20, Ferrous sulphate, reference compound] | much greater colour changes |  |  |
| 1.57 | 1.03 | 1.32 | 3.77 | 6.46 | Ferrichrysin | smaller than the yoghurts fortified by the other iron salts | closest colour to the yoghurt with no added iron | good source of bioavailable iron |
